Laboratory results published in patent US9999690B2, “Labeled compounds and methods of imaging, diagnosing cartilage disorders and diseases, and monitoring cartilage health using labeled and unlabeled compounds” (Perosphere Inc., priority 2013, dated 2018).

Assay: physchem
Settings: water

SMILES: N=C(N)NCCCC(N)C(=O)NCCCN1CCN(CCCNC(=O)C(N)CCCNC(=N)N)CC1 (stereo not shown) [formula V, 2-Amino-5-guanidino-pentanoic acid (3-{4-[3-(2-amino-5-guanidino-pentanoylamino)-propyl]-piperazin-1-yl}-propyl)-amide]
- solubility: > 100 mg/mL
